Laboratory results: ChEMBL document CHEMBL4507315 (2021)

Legend:
[1] = test system: Tyrosine-protein kinase ABL1 (Homo sapiens), P00519 [F317L]; conditions: Compound concentration 100.0 nM
[2] = test system: Tyrosine-protein kinase ABL1 (Homo sapiens), P00519 [Q252H]; conditions: Compound concentration 100.0 nM
[3] = target: Activin receptor type-2B (Homo sapiens) (UniProt Q13705); conditions: Compound concentration 100.0 nM
[4] = target: Ankyrin repeat and protein kinase domain-containing protein 1 (Homo sapiens) (UniProt Q8NFD2); conditions: Compound concentration 100.0 nM
Chain of Ankyrin repeat and protein kinase domain-containing protein 1 (Homo sapiens) (Q8NFD2 whole entry, the tested form may be a part): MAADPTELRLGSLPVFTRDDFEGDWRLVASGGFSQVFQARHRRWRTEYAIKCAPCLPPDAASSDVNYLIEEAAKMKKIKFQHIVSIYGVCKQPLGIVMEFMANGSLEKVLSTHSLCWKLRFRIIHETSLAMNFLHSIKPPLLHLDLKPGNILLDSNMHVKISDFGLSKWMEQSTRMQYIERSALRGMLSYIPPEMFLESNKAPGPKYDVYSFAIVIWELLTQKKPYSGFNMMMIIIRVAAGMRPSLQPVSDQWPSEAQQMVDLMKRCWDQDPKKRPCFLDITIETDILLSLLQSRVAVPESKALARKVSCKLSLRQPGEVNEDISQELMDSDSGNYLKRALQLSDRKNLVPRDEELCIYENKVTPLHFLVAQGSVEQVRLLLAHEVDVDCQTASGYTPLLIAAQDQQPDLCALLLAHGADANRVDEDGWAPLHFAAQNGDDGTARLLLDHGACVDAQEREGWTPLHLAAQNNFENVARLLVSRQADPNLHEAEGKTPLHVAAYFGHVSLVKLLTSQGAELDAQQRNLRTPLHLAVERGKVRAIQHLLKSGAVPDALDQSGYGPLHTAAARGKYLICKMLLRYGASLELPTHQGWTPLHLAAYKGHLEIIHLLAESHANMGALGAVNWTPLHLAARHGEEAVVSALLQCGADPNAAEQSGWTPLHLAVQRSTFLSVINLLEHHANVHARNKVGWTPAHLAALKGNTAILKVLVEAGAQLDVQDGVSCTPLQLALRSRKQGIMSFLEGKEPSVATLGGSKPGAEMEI

[5] = target: Serine/threonine-protein kinase BRSK1 (Homo sapiens) (UniProt Q8TDC3); conditions: Compound concentration 100.0 nM
[6] = target: Calcium/calmodulin-dependent protein kinase type IV (Homo sapiens) (UniProt Q16566); conditions: Compound concentration 100.0 nM
Chain of Calcium/calmodulin-dependent protein kinase type IV (Homo sapiens) (Q16566 whole entry): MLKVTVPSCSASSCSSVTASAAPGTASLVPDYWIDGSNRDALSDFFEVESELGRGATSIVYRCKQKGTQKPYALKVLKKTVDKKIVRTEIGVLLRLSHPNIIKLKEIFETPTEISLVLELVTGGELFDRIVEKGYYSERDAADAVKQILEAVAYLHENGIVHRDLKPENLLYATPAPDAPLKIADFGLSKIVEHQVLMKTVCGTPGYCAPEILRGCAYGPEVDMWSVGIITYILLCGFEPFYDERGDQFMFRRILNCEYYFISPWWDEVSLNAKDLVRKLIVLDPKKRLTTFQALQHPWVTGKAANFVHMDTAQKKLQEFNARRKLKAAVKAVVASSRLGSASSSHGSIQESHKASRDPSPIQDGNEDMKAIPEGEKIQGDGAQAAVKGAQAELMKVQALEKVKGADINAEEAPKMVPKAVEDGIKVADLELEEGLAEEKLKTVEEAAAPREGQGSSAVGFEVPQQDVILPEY

[7] = target: Cyclin-dependent kinase 11A (Homo sapiens) (UniProt Q9UQ88); conditions: Compound concentration 100.0 nM
Chain of Cyclin-dependent kinase 11A (Homo sapiens) (Q9UQ88 whole entry): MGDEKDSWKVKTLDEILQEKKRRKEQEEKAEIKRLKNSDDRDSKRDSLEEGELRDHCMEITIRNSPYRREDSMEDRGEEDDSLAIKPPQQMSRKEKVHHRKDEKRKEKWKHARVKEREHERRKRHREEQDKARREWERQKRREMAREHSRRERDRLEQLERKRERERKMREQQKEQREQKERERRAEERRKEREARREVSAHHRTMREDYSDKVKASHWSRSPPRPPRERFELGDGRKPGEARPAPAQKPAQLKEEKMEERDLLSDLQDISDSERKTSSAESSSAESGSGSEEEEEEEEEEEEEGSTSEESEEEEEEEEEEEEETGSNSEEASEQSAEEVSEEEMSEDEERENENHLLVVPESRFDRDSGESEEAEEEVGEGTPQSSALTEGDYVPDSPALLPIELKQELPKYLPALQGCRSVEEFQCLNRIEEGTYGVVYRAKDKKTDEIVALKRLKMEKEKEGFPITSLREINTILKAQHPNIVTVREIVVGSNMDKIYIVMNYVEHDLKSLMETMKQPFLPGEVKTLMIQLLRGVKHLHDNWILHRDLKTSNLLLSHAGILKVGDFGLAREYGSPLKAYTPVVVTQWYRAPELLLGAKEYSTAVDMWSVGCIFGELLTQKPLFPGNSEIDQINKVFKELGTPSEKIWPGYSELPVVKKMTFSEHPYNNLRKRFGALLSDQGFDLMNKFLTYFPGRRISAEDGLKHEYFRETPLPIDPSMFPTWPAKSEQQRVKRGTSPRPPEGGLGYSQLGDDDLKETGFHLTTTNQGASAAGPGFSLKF

[8] = target: Cyclin-dependent kinase 4 (Homo sapiens) (UniProt P11802); conditions: Compound concentration 100.0 nM
[9] = target: Cyclin-dependent kinase 8 (Homo sapiens) (UniProt P49336); conditions: Compound concentration 100.0 nM
Chain of Cyclin-dependent kinase 8 (Homo sapiens) (P49336 whole entry): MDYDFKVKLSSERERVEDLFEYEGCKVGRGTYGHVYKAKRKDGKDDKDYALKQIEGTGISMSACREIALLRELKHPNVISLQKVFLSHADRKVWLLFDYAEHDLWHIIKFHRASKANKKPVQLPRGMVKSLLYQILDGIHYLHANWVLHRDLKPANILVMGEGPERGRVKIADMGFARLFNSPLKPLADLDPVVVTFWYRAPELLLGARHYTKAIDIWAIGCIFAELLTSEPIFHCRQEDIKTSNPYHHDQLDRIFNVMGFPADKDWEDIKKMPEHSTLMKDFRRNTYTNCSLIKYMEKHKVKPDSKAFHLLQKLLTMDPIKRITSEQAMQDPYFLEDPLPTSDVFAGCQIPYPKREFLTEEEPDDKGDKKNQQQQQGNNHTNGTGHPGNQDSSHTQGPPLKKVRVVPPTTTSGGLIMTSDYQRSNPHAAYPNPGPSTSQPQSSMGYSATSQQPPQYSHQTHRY

[10] = test system: Epidermal growth factor receptor (Homo sapiens), P00533 [UNDEFINED MUTATION]; conditions: Compound concentration 100.0 nM
[11] = target: Ephrin type-B receptor 1 (Homo sapiens) (UniProt P54762); conditions: Compound concentration 100.0 nM
[12] = target: Receptor tyrosine-protein kinase erbB-2 (Homo sapiens) (UniProt P04626); conditions: Compound concentration 100.0 nM
[13] = target: Mitogen-activated protein kinase 4 (Homo sapiens) (UniProt P31152); conditions: Compound concentration 100.0 nM
[14] = test system: Leucine-rich repeat serine/threonine-protein kinase 2 (Homo sapiens), Q5S007 [G2019S]; conditions: Compound concentration 100.0 nM
[15] = target: Mitogen-activated protein kinase kinase kinase kinase 5 (Homo sapiens) (UniProt Q9Y4K4); conditions: Compound concentration 100.0 nM
[16] = target: Dual specificity mitogen-activated protein kinase kinase 3 (Homo sapiens) (UniProt P46734); conditions: Compound concentration 100.0 nM
[17] = target: Mitogen-activated protein kinase kinase kinase 9 (Homo sapiens) (UniProt P80192); conditions: Compound concentration 100.0 nM
[18] = target: Myosin light chain kinase 2, skeletal/cardiac muscle (Homo sapiens) (UniProt Q9H1R3); conditions: Compound concentration 100.0 nM
[19] = target: Serine/threonine-protein kinase Nek11 (Homo sapiens) (UniProt Q8NG66); conditions: Compound concentration 100.0 nM
[20] = target: Serine/threonine-protein kinase Nek4 (Homo sapiens) (UniProt P51957); conditions: Compound concentration 100.0 nM
[21] = target: Serine/threonine-protein kinase Nek6 (Homo sapiens) (UniProt Q9HC98); conditions: Compound concentration 100.0 nM
[22] = target: Serine/threonine-protein kinase Nek9 (Homo sapiens) (UniProt Q8TD19); conditions: Compound concentration 100.0 nM
[23] = target: Serine/threonine-protein kinase PAK 2 (Homo sapiens) (UniProt Q13177); conditions: Compound concentration 100.0 nM
[24] = target: 3-phosphoinositide-dependent protein kinase 1 (Homo sapiens) (UniProt O15530); conditions: Compound concentration 100.0 nM
[25] = target: Phosphorylase b kinase gamma catalytic chain, skeletal muscle/heart isoform (Homo sapiens) (UniProt Q16816); conditions: Compound concentration 100.0 nM
[26] = target: Phosphorylase b kinase regulatory subunit alpha, liver isoform (Homo sapiens) (UniProt P46019); conditions: Compound concentration 100.0 nM
[27] = target: Phosphatidylinositol 3-kinase C2 domain-containing subunit gamma (Homo sapiens) (UniProt O75747); conditions: Compound concentration 100.0 nM
Chain of Phosphatidylinositol 3-kinase C2 domain-containing subunit gamma (Homo sapiens) (O75747 whole entry, the tested form may be a part): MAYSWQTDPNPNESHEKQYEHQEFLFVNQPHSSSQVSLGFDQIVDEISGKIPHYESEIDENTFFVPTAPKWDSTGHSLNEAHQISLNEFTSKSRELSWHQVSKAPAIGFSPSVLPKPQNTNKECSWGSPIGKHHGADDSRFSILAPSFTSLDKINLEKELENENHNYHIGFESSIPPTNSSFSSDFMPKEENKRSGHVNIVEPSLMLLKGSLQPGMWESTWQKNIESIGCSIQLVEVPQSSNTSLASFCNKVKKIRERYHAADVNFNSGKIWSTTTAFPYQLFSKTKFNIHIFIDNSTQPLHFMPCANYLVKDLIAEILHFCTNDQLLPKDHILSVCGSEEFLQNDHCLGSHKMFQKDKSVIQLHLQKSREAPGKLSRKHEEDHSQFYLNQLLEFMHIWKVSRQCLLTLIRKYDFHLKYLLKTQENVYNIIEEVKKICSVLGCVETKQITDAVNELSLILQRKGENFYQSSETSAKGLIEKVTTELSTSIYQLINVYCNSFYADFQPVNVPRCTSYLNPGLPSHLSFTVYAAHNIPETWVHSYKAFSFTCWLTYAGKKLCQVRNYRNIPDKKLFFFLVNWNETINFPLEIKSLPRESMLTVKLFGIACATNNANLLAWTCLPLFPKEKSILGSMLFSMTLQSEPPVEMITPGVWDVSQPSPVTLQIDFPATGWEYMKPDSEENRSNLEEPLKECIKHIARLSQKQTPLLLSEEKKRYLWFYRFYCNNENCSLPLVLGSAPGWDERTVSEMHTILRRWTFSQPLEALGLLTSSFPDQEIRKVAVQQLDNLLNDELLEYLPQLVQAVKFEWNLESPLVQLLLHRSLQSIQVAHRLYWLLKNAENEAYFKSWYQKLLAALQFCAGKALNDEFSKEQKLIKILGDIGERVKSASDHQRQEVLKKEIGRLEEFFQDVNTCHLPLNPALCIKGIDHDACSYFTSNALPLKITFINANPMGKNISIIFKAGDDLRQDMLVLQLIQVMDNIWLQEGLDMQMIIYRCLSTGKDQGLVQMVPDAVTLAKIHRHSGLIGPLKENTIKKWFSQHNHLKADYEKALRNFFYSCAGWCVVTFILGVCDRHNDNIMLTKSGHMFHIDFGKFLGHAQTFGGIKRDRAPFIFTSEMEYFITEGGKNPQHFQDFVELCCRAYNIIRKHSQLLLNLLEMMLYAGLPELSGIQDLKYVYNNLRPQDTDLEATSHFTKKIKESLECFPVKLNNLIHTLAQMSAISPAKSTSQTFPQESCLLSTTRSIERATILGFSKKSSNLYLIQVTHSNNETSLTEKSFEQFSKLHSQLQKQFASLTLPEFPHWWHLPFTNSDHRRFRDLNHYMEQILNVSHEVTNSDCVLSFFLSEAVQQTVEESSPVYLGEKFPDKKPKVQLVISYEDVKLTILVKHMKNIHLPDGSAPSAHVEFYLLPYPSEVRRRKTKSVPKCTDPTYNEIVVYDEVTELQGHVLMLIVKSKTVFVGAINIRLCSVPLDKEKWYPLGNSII

[28] = target: Serine/threonine-protein kinase N1 (Homo sapiens) (UniProt Q16512); conditions: Compound concentration 100.0 nM
[29] = target: Ribosomal protein S6 kinase alpha-4 (Homo sapiens) (UniProt O75676); conditions: Compound concentration 100.0 nM
[30] = target: Ribosomal protein S6 kinase alpha-3 (Homo sapiens) (UniProt P51812); conditions: Compound concentration 100.0 nM
[31] = target: Serine/threonine-protein kinase SBK1 (Homo sapiens) (UniProt Q52WX2); conditions: Compound concentration 100.0 nM
[32] = target: Serine/threonine-protein kinase Sgk3 (Homo sapiens) (UniProt Q96BR1); conditions: Compound concentration 100.0 nM
[33] = target: Serine/threonine-protein kinase TAO2 (Homo sapiens) (UniProt Q9UL54); conditions: Compound concentration 100.0 nM
[34] = target: Serine/threonine-protein kinase TAO3 (Homo sapiens) (UniProt Q9H2K8); conditions: Compound concentration 100.0 nM
[35] = target: Tyrosine-protein kinase receptor Tie-1 (Homo sapiens) (UniProt P35590); conditions: Compound concentration 100.0 nM
[36] = target: Non-receptor tyrosine-protein kinase TNK1 (Homo sapiens) (UniProt Q13470); conditions: Compound concentration 100.0 nM
Chain of Non-receptor tyrosine-protein kinase TNK1 (Homo sapiens) (Q13470 whole entry): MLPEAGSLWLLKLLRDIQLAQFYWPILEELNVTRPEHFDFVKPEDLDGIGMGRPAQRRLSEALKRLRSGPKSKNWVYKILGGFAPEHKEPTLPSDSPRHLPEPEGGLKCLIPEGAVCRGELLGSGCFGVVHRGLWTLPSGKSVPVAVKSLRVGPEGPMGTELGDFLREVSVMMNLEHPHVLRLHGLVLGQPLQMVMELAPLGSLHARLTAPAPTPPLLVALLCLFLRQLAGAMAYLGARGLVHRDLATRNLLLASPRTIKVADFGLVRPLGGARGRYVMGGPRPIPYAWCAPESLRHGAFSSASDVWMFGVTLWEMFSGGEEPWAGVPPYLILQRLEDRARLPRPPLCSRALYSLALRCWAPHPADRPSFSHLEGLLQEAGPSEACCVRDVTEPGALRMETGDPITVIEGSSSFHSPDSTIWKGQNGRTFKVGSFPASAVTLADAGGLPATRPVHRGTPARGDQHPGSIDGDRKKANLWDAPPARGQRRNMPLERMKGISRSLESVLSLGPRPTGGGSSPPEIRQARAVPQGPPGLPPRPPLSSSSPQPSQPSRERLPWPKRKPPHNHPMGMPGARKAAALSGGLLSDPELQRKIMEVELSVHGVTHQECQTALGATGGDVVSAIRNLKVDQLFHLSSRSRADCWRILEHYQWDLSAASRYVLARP

[37] = target: Transient receptor potential cation channel subfamily M member 6 (Homo sapiens) (UniProt Q9BX84); conditions: Compound concentration 100.0 nM
[38] = target: Serine/threonine-protein kinase ULK2 (Homo sapiens) (UniProt Q8IYT8); conditions: Compound concentration 100.0 nM
[39] = target: Serine/threonine-protein kinase WNK4 (Homo sapiens) (UniProt Q96J92); conditions: Compound concentration 100.0 nM
[40] = target: 5-hydroxytryptamine receptor 1A (Homo sapiens) (UniProt P08908); conditions: Compound concentration 10.0 uM
Chain of 5-hydroxytryptamine receptor 1A (Homo sapiens) (P08908 whole entry): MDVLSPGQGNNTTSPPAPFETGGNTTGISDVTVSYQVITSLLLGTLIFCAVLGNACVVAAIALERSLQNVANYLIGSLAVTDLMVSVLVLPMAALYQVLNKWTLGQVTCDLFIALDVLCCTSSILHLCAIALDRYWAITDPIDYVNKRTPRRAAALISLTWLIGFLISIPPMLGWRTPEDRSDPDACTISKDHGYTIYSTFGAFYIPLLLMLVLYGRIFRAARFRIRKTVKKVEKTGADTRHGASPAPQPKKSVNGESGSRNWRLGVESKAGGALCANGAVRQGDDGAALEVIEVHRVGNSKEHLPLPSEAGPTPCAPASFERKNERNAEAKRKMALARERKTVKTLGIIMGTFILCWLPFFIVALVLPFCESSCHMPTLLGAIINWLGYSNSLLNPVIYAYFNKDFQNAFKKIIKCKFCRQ

[41] = target: 5-hydroxytryptamine receptor 3A (Homo sapiens) (UniProt P46098); conditions: Compound concentration 10.0 uM
[42] = target: Muscarinic acetylcholine receptor M2 (Homo sapiens) (UniProt P08172); conditions: Compound concentration 10.0 uM
[43] = target: GABA-A receptor; anion channel (Rattus norvegicus) (UniProt O09028+P15431+P18506+P18508+P19969+P20236+P23574+P23576+P28471+P28473+P30191+P62813+P63079+P63138+Q91ZM7+Q9ES14); conditions: Compound concentration 10.0 uM

Nc1c(C(=O)NCc2ccc(C(=O)NCCCC3CCCCC3)cc2)cnn1-c1ccccc1 [SR-318]
inactive: residual activity [1] 100% | residual activity [2] 98% | residual activity [3] 100% | residual activity [4] 100% | residual activity [5] 94% | residual activity [6] 98% | residual activity [7] 100% | residual activity [8] 100% | residual activity [9] 96% | residual activity [10] 100% | residual activity [11] 100% | residual activity [12] 100% | residual activity [13] 100% | residual activity [14] 100% | residual activity [15] 100% | residual activity [16] 85% | residual activity [17] 96% | residual activity [18] 100% | residual activity [19] 94% | residual activity [20] 100% | residual activity [21] 100% | residual activity [22] 100% | residual activity [23] 66% | residual activity [24] 100% | residual activity [25] 90% | residual activity [26] 100% | residual activity [27] 100% | residual activity [28] 96% | residual activity [29] 85% | residual activity [30] 100% | residual activity [31] 82% | residual activity [32] 90% | residual activity [33] 100% | residual activity [34] 96% | residual activity [35] 100% | residual activity [36] 91% | residual activity [37] 100% | residual activity [38] 100% | residual activity [39] 80% | inhibition [40] -1.43% | inhibition [41] -0.42% | inhibition [42] 22.5% | inhibition [43] 13.3%

O=C(NCCCC1CCCCC1)c1ccc(CNC(=O)c2cnn(-c3ccccc3)c2C(F)(F)F)cc1 [SR-321]
inactive: residual activity [1] 100% | residual activity [2] 98% | residual activity [3] 96% | residual activity [4] 100% | residual activity [5] 100% | residual activity [6] 100% | residual activity [7] 100% | residual activity [8] 100% | residual activity [9] 97% | residual activity [10] 100% | residual activity [11] 89% | residual activity [12] 100% | residual activity [13] 100% | residual activity [14] 100% | residual activity [15] 88% | residual activity [16] 100% | residual activity [17] 100% | residual activity [18] 100% | residual activity [19] 100% | residual activity [20] 100% | residual activity [21] 83% | residual activity [22] 100% | residual activity [23] 100% | residual activity [24] 100% | residual activity [25] 100% | residual activity [26] 100% | residual activity [27] 100% | residual activity [28] 100% | residual activity [29] 83% | residual activity [30] 100% | residual activity [31] 100% | residual activity [32] 92% | residual activity [33] 89% | residual activity [34] 99% | residual activity [35] 100% | residual activity [36] 88% | residual activity [37] 94% | residual activity [38] 100% | residual activity [39] 100% | inhibition [40] 20.1% | inhibition [41] 5.72% | inhibition [42] 19.3% | inhibition [43] 14%
